Columns and labels:
[1] = molecular target: T1, Peroxisome proliferator-activated receptor gamma (Homo sapiens, UniProt P37231); format: functional
T1 sequence (P37231 whole entry): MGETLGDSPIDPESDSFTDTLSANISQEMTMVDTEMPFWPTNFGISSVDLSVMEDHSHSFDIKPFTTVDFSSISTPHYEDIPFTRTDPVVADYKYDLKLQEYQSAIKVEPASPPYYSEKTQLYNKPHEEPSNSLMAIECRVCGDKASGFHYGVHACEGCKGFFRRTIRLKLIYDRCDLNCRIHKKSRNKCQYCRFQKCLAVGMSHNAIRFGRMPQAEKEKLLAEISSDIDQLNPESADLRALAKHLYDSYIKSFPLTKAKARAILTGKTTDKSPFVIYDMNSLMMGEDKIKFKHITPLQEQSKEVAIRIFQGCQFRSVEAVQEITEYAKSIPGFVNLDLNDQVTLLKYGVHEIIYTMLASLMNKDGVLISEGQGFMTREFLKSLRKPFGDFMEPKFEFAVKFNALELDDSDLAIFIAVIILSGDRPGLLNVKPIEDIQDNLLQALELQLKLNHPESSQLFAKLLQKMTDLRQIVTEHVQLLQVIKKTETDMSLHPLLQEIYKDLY

[2] = molecular target: T1, Peroxisome proliferator-activated receptor gamma; format: functional; remark: listed apart in the source
Histamine H1 receptor [3] = molecular target: T2, Histamine H1 receptor (Homo sapiens, UniProt P35367); format: functional, cell-based
Histamine H1 receptor [4] = molecular target: T2, Histamine H1 receptor; format: functional, cell-based; remark: listed apart in the source
[5] = molecular target: T3, Gamma-aminobutyric acid receptor subunit alpha-1/alpha-2/beta-2/gamma-2 (Homo sapiens, UniProt P14867+P47870+P18507+P47869); format: functional, cell-based
D(1A) dopamine receptor [6] = molecular target: T4, D(1A) dopamine receptor (Homo sapiens, UniProt P21728)
[7] = molecular target: T3, Gamma-aminobutyric acid receptor subunit alpha-1/alpha-2/beta-2/gamma-2; format: functional, cell-based; remark: listed apart in the source
[8] = molecular target: Voltage-dependent L-type calcium channel subunit alpha-1C (Homo sapiens, UniProt Q13936); format: functional, cell-based
[9] = molecular target: T3, Gamma-aminobutyric acid receptor subunit alpha-1/alpha-2/beta-2/gamma-2; format: protein-complex assay
Thromboxane A2 receptor = molecular target: T5, Thromboxane A2 receptor (Homo sapiens, UniProt P21731); format: functional, cell-based
T5 sequence (P21731 whole entry): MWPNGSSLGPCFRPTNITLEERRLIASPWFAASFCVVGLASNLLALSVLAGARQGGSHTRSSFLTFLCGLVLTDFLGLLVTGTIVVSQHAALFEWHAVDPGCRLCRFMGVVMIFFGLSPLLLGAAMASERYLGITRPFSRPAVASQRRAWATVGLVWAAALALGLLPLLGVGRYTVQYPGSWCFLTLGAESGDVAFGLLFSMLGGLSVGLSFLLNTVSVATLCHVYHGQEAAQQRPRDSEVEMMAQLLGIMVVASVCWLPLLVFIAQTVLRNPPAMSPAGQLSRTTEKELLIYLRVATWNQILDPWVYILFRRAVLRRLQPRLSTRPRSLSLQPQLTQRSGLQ

[10] = molecular target: Receptor tyrosine-protein kinase erbB-2 (Homo sapiens, UniProt P04626); format: functional
D(1A) dopamine receptor [11] = molecular target: T4, D(1A) dopamine receptor; format: functional, cell-based
[12] = molecular target: Gamma-aminobutyric acid type B receptor subunit 1 (Homo sapiens, UniProt Q9UBS5)
[13] = molecular target: 5-hydroxytryptamine receptor 7 (Homo sapiens, UniProt P34969)
[14] = molecular target: T6, Muscarinic acetylcholine receptor M1 (Homo sapiens, UniProt P11229); format: functional, cell-based
T6 sequence (P11229 whole entry): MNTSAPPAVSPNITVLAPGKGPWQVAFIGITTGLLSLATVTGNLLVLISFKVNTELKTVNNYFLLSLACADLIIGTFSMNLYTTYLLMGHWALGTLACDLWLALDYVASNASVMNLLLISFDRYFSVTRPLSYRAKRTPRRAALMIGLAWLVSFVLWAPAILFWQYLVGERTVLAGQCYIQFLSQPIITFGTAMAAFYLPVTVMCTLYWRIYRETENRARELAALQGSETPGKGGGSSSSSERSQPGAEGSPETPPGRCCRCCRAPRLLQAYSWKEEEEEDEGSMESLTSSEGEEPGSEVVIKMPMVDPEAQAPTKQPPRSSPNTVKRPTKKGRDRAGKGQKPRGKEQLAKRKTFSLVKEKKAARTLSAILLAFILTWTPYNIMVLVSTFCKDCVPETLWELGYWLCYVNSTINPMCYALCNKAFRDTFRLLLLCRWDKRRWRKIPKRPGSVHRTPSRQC

[15] = molecular target: Vascular endothelial growth factor receptor 2 (Homo sapiens, UniProt P35968); format: functional
Adenosine receptor A3 = molecular target: T7, Adenosine receptor A3 (Homo sapiens, UniProt P0DMS8)
T7 sequence (P0DMS8 whole entry): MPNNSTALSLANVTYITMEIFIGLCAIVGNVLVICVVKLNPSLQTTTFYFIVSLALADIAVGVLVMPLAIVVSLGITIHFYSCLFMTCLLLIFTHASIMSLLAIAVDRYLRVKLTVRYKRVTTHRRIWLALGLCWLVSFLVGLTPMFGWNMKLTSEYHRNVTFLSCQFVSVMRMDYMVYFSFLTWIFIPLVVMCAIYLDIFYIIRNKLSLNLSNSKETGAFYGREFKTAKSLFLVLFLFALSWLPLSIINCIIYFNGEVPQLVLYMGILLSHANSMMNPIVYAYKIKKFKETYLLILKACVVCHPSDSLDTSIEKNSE

[16] = molecular target: Prostaglandin G/H synthase 1 (Homo sapiens, UniProt P23219); format: functional
[17] = molecular target: Gamma-aminobutyric acid receptor subunit alpha-1/alpha-2/beta-2/gamma-2 (Homo sapiens, UniProt P14867+P18507+P47869+P47870); format: protein-complex assay
Mu-type opioid receptor = Mu-type opioid receptor (Homo sapiens, UniProt P35372)
D(1A) dopamine receptor [18] = molecular target: T4, D(1A) dopamine receptor; remark: listed apart in the source
Further: assay procedure not described here.

T3 sequence (P14867 whole entry): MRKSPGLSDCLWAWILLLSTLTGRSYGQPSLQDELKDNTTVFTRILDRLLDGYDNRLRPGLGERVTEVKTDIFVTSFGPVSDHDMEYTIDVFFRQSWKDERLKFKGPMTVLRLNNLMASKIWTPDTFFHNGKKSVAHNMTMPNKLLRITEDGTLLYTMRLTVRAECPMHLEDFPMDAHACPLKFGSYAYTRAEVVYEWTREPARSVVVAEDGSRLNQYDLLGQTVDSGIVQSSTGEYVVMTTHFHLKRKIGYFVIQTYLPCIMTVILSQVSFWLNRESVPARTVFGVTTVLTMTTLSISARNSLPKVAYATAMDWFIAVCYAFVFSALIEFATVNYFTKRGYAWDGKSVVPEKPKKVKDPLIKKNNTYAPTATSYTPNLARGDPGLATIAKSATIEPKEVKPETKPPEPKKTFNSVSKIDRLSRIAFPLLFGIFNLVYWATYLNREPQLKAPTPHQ
T3 sequence (P47870 whole entry): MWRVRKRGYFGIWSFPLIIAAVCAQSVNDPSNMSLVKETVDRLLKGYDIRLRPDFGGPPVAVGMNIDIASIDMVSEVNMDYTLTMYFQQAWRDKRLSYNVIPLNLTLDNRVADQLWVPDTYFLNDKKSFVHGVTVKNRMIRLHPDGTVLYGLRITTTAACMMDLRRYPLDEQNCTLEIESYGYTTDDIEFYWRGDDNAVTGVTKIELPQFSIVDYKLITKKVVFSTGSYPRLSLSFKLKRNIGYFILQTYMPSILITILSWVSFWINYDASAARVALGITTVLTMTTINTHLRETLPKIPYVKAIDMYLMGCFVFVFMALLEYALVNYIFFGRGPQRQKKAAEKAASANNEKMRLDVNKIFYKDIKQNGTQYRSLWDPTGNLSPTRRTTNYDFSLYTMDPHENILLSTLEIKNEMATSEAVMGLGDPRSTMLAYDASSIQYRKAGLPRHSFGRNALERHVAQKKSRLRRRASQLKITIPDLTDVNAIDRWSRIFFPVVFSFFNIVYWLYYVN
T3 sequence (P18507 whole entry): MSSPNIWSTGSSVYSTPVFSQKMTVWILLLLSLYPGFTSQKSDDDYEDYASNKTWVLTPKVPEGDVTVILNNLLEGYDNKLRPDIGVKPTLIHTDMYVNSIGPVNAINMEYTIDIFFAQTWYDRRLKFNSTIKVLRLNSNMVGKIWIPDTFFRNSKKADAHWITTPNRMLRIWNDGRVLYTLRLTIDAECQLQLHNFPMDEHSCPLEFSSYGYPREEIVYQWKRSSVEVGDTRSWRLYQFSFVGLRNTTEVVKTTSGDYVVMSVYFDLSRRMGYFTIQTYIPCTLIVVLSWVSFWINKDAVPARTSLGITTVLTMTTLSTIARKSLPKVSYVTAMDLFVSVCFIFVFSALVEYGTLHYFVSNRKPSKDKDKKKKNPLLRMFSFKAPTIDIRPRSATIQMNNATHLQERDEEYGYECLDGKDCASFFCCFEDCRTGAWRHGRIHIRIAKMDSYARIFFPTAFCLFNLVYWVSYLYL
T3 sequence (P47869 whole entry): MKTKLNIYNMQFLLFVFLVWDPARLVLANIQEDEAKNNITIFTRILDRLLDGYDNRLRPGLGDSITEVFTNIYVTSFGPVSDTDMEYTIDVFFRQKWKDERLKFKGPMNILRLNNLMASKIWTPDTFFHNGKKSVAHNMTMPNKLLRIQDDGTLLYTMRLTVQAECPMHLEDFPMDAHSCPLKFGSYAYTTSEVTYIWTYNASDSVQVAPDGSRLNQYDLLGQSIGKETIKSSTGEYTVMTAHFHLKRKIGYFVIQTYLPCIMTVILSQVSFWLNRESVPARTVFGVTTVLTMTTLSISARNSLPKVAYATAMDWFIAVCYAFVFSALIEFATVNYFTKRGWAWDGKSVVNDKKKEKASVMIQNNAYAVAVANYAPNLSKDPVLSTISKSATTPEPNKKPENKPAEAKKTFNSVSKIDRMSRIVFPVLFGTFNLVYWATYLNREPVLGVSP
T4 sequence (P21728 whole entry): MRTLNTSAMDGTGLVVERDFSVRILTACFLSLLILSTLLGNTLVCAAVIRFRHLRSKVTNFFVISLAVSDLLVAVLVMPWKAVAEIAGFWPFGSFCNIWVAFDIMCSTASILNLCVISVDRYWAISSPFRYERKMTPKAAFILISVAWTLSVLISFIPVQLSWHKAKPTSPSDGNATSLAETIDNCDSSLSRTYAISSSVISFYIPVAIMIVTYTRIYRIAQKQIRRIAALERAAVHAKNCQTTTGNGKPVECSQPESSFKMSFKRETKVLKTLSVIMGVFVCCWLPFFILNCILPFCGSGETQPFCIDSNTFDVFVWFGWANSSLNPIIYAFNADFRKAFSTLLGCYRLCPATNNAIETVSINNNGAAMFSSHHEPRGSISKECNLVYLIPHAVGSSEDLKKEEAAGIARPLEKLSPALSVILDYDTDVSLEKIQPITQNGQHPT
T2 sequence (P35367 whole entry): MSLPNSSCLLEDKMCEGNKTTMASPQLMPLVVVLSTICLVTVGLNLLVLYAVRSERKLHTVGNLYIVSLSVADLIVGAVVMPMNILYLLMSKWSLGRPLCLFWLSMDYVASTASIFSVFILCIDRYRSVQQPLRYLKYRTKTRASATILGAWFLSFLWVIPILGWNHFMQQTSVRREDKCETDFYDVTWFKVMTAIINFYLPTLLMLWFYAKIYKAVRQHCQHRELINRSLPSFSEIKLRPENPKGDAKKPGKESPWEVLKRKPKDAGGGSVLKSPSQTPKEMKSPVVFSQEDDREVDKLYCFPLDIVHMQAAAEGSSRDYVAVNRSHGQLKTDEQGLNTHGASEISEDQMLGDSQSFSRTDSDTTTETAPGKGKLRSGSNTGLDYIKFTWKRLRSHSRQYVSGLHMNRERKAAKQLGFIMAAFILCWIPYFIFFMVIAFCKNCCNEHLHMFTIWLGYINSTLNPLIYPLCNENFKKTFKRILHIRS
Vascular endothelial growth factor receptor 2, sequence (P35968 whole entry): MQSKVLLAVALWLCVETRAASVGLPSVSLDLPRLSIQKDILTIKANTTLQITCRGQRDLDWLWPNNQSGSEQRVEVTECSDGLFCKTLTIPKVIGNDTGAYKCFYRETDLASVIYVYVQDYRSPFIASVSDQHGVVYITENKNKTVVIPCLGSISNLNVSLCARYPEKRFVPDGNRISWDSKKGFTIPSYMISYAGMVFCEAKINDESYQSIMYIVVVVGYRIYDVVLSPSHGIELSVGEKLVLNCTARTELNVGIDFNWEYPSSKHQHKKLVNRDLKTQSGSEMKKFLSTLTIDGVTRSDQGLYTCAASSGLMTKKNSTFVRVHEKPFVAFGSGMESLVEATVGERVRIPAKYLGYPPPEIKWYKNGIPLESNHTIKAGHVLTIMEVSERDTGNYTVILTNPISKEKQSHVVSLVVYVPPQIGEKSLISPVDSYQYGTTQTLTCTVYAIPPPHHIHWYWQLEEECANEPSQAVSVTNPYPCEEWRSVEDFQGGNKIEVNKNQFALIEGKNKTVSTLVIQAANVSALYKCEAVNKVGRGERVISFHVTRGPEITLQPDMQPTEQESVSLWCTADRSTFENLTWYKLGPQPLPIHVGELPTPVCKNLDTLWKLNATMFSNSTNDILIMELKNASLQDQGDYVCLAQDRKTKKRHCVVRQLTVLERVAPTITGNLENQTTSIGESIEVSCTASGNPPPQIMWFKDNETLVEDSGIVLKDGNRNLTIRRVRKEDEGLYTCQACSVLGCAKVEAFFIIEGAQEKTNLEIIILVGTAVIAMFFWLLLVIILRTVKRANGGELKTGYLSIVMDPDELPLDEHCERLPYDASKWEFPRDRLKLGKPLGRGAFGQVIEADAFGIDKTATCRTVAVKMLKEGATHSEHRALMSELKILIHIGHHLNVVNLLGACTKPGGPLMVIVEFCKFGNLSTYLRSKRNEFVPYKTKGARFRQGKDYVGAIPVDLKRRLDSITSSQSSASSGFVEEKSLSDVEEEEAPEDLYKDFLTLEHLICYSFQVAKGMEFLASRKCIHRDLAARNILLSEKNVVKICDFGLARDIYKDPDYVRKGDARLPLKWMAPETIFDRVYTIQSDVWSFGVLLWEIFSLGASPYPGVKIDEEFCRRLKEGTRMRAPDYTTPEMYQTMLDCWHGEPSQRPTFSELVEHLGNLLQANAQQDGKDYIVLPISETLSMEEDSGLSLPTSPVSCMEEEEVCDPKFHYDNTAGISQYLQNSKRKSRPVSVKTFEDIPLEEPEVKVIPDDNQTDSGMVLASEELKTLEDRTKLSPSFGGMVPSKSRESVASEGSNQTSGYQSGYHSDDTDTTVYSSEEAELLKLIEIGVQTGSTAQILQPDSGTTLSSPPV
Mu-type opioid receptor, sequence (P35372 whole entry): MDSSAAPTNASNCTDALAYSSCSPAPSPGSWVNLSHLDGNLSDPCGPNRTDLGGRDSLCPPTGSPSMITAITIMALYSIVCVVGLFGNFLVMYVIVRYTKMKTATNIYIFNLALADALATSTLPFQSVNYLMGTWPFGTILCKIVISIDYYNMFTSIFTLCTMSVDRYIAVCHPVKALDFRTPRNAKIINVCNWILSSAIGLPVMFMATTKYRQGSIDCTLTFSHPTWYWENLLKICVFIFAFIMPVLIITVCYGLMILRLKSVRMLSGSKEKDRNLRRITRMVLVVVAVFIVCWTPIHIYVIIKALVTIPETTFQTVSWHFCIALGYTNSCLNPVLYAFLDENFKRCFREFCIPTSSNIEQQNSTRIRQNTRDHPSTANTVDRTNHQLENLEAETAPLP
Gamma-aminobutyric acid receptor subunit alpha-1/alpha-2/beta-2/gamma-2 (Homo sapiens, UniProt P14867+P18507+P47869+P47870), sequence (P14867 whole entry): as the sequence (P14867 whole entry) above
Gamma-aminobutyric acid receptor subunit alpha-1/alpha-2/beta-2/gamma-2 (Homo sapiens, UniProt P14867+P18507+P47869+P47870), sequence (P47870 whole entry): as the sequence (P47870 whole entry) above
Gamma-aminobutyric acid receptor subunit alpha-1/alpha-2/beta-2/gamma-2 (Homo sapiens, UniProt P14867+P18507+P47869+P47870), sequence (P18507 whole entry): as the sequence (P18507 whole entry) above
Gamma-aminobutyric acid receptor subunit alpha-1/alpha-2/beta-2/gamma-2 (Homo sapiens, UniProt P14867+P18507+P47869+P47870), sequence (P47869 whole entry): as the sequence (P47869 whole entry) above

`Brc1c(NC2=NCCN2)ccc2nccnc12` [BRIMONIDINE] gave an AC50 [1] of over 30 µM and an AC50 [2] of over 30 µM.

For `NC(=O)CN1CC(O)CC1=O` (stereo unspecified) [OXIRACETAM], the AC50 (Histamine H1 receptor [3]) was over 30 µM and the AC50 (Histamine H1 receptor [4]) was over 30 µM.

Work on THIMEROSAL yielded an AC50 [5] of over 30 µM, an AC50 (D(1A) dopamine receptor [6]) of 10 µM and an AC50 [7] of over 30 µM. The AC50 [8] was over 50 µM, the AC50 [9] was over 30 µM and the AC50 (Thromboxane A2 receptor) was over 10 µM.

Compound `CC(CC1c2ccccc2CCc2ccccc21)CN(C)C` (stereo unspecified) [BUTRIPTYLINE] has an AC50 [10] of over 30 µM.

With `Cc1cc(C(C)(C)C)c(O)c(C)c1CC1=NCCN1` [OXYMETAZOLINE] the AC50 (D(1A) dopamine receptor [11]) was over 30 µM.

With `Cc1c(OCC(F)(F)F)ccnc1C[S+]([O-])c1nc2ccccc2[nH]1` (stereo unspecified) [LANSOPRAZOLE] the AC50 [12] was over 10 µM and the AC50 [13] was over 10 µM.

Work on `CO[C@]12C[C@@H](COC(=O)c3cncc(Br)c3)CN(C)[C@@H]1Cc1cn(C)c3cccc2c13` [NICERGOLINE] yielded an AC50 [14] of 1.86 µM, an AC50 [15] of over 30 µM and an AC50 (Adenosine receptor A3) of 22.4 µM. For the same compound, the AC50 [16] was over 30 µM, the AC50 [17] was over 10 µM and the AC50 (Mu-type opioid receptor) was 2.38 µM. It also gave an AC50 (D(1A) dopamine receptor [18]) of 0.393 µM.
